Values after ≈ are worked out from the molar mass of the structure shown. Where a SMILES comes first, the peptide text is derived from it.
Assays:
[1] = system: Rabbit RBC; assay type: cell-based
Outline: (§1)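 Washed rabbit or human erythrocytes (4% v/v in PBS pH 7.3) incubated with peptide dilutions 1 h at 37° C. Hemoglobin release read at 540 nm in supernatant, relative to PBS control and 0.1% Triton X-100 as 100% lysis; peptides tested at […].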

[2] = system: Human RBC; assay type: cell-based
Outline: as §1

[3] = system: B. subtilis ATCC6633; assay type: cell-based, Bacillus subtilis
From the text: (§2) The bacterial strains used were E. coli C498, E. coli C500, Escherichia coli UB1005 and its antibiotic supersusceptible derivative DC2 (22); a clinical isolate of Staphylococcus epidermidis (C621); coryneform bacterial strain Corynebacterium xerosis (C875); and E. coli ATCC 25922, Staphylococcus aureus ATCC 25923, Enterococcus faecalis ATCC 29212, Bacillus subtilis ATCC 6633 and Pseudomonas aeruginosa ATCC 27853, all from American Type Culture Collection.
(§3) Peptide antibacterial activity was assessed by the method of R. Hancock et al. (Wu & Hancock (1999), J. Biol. Chem., v. 274, pp. 29-35). Test strains of bacteria from Mueller Hinton agar (MHA) plates were inoculated into 5 ml Mueller Hinton Broth (MHB) in tubes and grown overnight at 37° C. on a shaker (180 rpm). Serial dilutions of test peptides (at 10 times the required test concentrations) were made in 0.01% acetic acid, 0.2% BSA, in polypropylene or coated glass tubes as follows: the test peptide was (a) dissolved in distilled water at 20 times the required maximum concentration (enough final volume for all tests to be performed on a given day); (b) diluted into an equal volume of 0.02% acetic acid, 0.4% BSA to give 10 times the required maximum concentration; (c) serial doubling dilutions were performed in 0.01% acetic acid, 0.2% BSA to provide serial dilutions of peptides at 10 times the required test concentrations, e.g., 640, 320, 160, . . . 2.5 μg/ml. (No deleterious effects of long-term storage of peptides in these media have been detected). Overnight bacterial cultures were diluted in MHB to give 2−7×10^5 colony forming units/ml. Bacterial suspension (100 μl) was dispensed in each well; controls without bacteria were maintained in parallel. To each well was added 11 μl of 10× test peptide and plates were incubated at 37° C. for 18-24 hours, and checked again at 40-48 hours. Plates were read visually and at 600 nm in a microplate reader (Molecular Devices).
(§4) A further number of the peptides of the invention were tested for antimicrobial activity against a range of Gram-positive and Gram-negative bacteria by the assay described immediately before Example 1.

[4] = system: E. coli UB1005; assay type: cell-based, Escherichia coli; settings: UB1005
Outline: (§5)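 MIC by microdilution: MHB, 2−7×10^5 CFU/ml, peptide 10× stocks in 0.01% AcOH/0.2% BSA (doubling series), 37° C 18-24 h, recheck 40-48 h, visual + OD600 read.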

[5] = system: E. coli ATCC25922; assay type: cell-based
From the text: as §2, §3, §4

[6] = system: E. faecalis ATCC29212; assay type: cell-based, Enterococcus faecalis
From the text: as §2, §3, §4

[7] = system: E. coli DC2; assay: Assay of antibacterial activity (MIC), E. coli DC2; assay type: cell-based, Escherichia coli; settings: Table 5A
Outline: as §5

[8] = system: Corynebacterium xerosis (C875); assay type: cell-based
Outline: (§6)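 Broth microdilution in Mueller Hinton Broth, inoculum 2−7×10^5 CFU/ml. Peptides serially doubled in 0.01% acetic acid, 0.2% BSA and added at 10× final concentration. Incubation 37° C for 18-24 h, rechecked at 40-48 h; growth read visually and at 600 nm.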

[9] = system: Staphylococcus epidermidis (C621); assay type: cell-based; settings: C621
Outline: as §6

[10] = system: P. aeruginosa ATCC27853; assay type: cell-based, Pseudomonas aeruginosa
From the text: as §2, §3, §4

[11] = system: S. aureus ATCC25923; assay type: cell-based, Staphylococcus aureus
From the text: as §2, §3, §4

[12] = system: C500: E. coli, antibiotic strain; assay type: cell-based; settings: C500: , antibiotic strain
From the text: as §2, §3
(§7) were synthesized. The antibacterial activity of these peptides was determined against both Gram-positive bacteria ([…], Corynebacterium xerosis) and Gram-negative bacteria (various strains of E. coli). The results are shown in Table 2, along with the average hydrophobicity of each peptide, calculated as described herein.

[13] = system: C498: E. coli, wild type strain; assay type: cell-based; settings: C498: , wild type strain
From the text: as §2, §3, §7

Compound	Rabbit RBC (% lysis) 50 μM [1] [% lysis]	Rabbit RBC (% lysis) 200 μM [1] [% lysis]	Human RBC (% lysis) 50 μM [2] [% lysis]	Human RBC (% lysis) 200 μM [2] [% lysis]	MIC B. subtilis ATCC6633 [3] [µM]	MIC E. coli UB1005 [4] [µM]	MIC E. coli ATCC25922 [5] [µM]	MIC E. faecalis ATCC29212 [6] [µM]	MIC E. coli DC2 [7] [µM]	MIC C875 [8] [µM]	MIC C. xerosis C875 [8] [µM]	MIC S. epidermidis C621 [9] [µM]	MIC P. aeruginosa ATCC27853 [10] [µM]	MIC S. aureus ATCC25923 [11] [µM]	MIC C500 [12] [µM]	MIC C498 [13] [µM]	MIC C621 [9] [µM]
C[C@H](NC(=O)[C@H](C)NC(=O)[C@H](Cc1ccccc1)NC(=O)[C@H](C)NC(=O)[C@H](C)NC(=O)[C@H](CCCNC(=N)N)NC(=O)[C@H](CCCNC(=N)N)NC(=O)[C@@H](N)CCCNC(=N)N)C(=O)N[C@@H](Cc1c[nH]c2ccccc12)C(=O)N[C@@H](C)C(=O)N[C@@H](C)C(=O)N[C@@H](Cc1ccccc1)C(=O)N[C@@H](C)C(=O)N[C@@H](C)C(=O)N[C@@H](CCCNC(=N)N)C(=O)N[C@@H](CCCNC(=N)N)C(=O)N[C@@H](CCCNC(=N)N)C(N)=O [Peptide F17R, RRRAAFAAWAAFAARRR-NH2] (H-RRRAAFAAWAAFAARRR-NH2; N-terminus assumed)	0	2	0	0	2 (≈ 4.01 µg/mL)	2 (≈ 4.01 µg/mL)	8 (≈ 16 µg/mL)	>32	1 (≈ 2 µg/mL)	1 (≈ 2 µg/mL)	1 (≈ 2 µg/mL)	4 (≈ 8.01 µg/mL)	16 (≈ 32.1 µg/mL)	>32	0.5 (≈ 1 µg/mL)	2 (≈ 4.01 µg/mL)	–
C[C@H](NC(=O)[C@H](C)NC(=O)[C@H](Cc1ccccc1)NC(=O)[C@H](C)NC(=O)[C@H](C)NC(=O)[C@H](Cc1c[nH]c2ccccc12)NC(=O)[C@H](C)NC(=O)[C@H](C)NC(=O)[C@H](Cc1ccccc1)NC(=O)[C@H](C)NC(=O)[C@H](C)NC(=O)[C@H](CCCCN)NC(=O)[C@H](CCCCN)NC(=O)[C@H](CCCCN)NC(=O)[C@H](CCCCN)NC(=O)[C@H](CCCCN)NC(=O)[C@@H](N)CCCCN)C(N)=O [F17(K6), KKKKKKAAFAAWAAFAA-NH2] (H-KKKKKKAAFAAWAAFAA-NH2; N-terminus assumed)	0	1	0	0	8 (≈ 14.7 µg/mL)	1 (≈ 1.84 µg/mL)	8 (≈ 14.7 µg/mL)	>32	0.5 (≈ 0.918 µg/mL)	0.5 (≈ 0.918 µg/mL)	0.5 (≈ 0.918 µg/mL)	4 (≈ 7.34 µg/mL)	16 (≈ 29.4 µg/mL)	>32	<0.25	0.5 (≈ 0.918 µg/mL)	–
C[C@H](NC(=O)[C@H](C)NC(=O)[C@H](CCCCN)NC(=O)[C@H](CCCCN)NC(=O)[C@@H](N)CCCCN)C(=O)N[C@@H](C)C(=O)N[C@@H](Cc1ccccc1)C(=O)N[C@@H](C)C(=O)N[C@@H](C)C(=O)N[C@@H](Cc1c[nH]c2ccccc12)C(=O)N[C@@H](C)C(=O)N[C@@H](C)C(=O)N[C@@H](Cc1ccccc1)C(=O)N[C@@H](C)C(=O)N[C@@H](CCCCN)C(=O)N[C@@H](CCCCN)C(=O)N[C@@H](CCCCN)C(N)=O [Peptide F17, KKKAAAFAAWAAFAKKK-NH2] (H-KKKAAAFAAWAAFAKKK-NH2; N-terminus assumed)	0	2	0	0	16 (≈ 29.4 µg/mL)	32 (≈ 58.7 µg/mL)	>32	>32	16 (≈ 29.4 µg/mL)	–	4 (≈ 7.34 µg/mL)	>32	>32	>32	–	–	–
C[C@H](NC(=O)[C@H](C)NC(=O)[C@H](C)NC(=O)[C@H](CCCCN)NC(=O)[C@@H](N)CCCCN)C(=O)N[C@@H](C)C(=O)N[C@@H](Cc1ccccc1)C(=O)N[C@@H](C)C(=O)N[C@@H](C)C(=O)N[C@@H](Cc1ccccc1)C(=O)N[C@@H](C)C(=O)N[C@@H](C)C(=O)N[C@@H](Cc1c[nH]c2ccccc12)C(=O)N[C@@H](Cc1ccccc1)C(=O)N[C@@H](C)C(=O)N[C@@H](C)C(=O)N[C@@H](Cc1ccccc1)C(=O)N[C@@H](C)C(=O)N[C@@H](C)C(=O)N[C@@H](C)C(=O)N[C@@H](C)C(=O)N[C@@H](CCCCN)C(=O)N[C@@H](CCCCN)C(=O)N[C@@H](CCCCN)C(=O)N[C@@H](CCCCN)C(N)=O [[F(4)25]] (H-KKAAAAFAAFAAWFAAFAAAAKKKK-NH2; N-terminus assumed)	14	34	17	42	2 (≈ 5.11 µg/mL)	8 (≈ 20.4 µg/mL)	16 (≈ 40.9 µg/mL)	>32	–	0.25 (≈ 0.639 µg/mL)	–	4 (≈ 10.2 µg/mL)	8 (≈ 20.4 µg/mL)	32 (≈ 81.8 µg/mL)	4 (≈ 10.2 µg/mL)	16 (≈ 40.9 µg/mL)	8 (≈ 20.4 µg/mL)
C[C@H](NC(=O)[C@H](C)NC(=O)[C@H](Cc1ccccc1)NC(=O)[C@H](C)NC(=O)[C@H](C)NC(=O)[C@H](Cc1ccccc1)NC(=O)[C@H](C)NC(=O)[C@H](C)NC(=O)[C@H](Cc1ccccc1)NC(=O)[C@H](C)NC(=O)[C@H](C)NC(=O)[C@H](CCCCN)NC(=O)[C@H](CCCCN)NC(=O)[C@H](CCCCN)NC(=O)[C@H](CCCCN)NC(=O)[C@H](CCCCN)NC(=O)[C@@H](N)CCCCN)C(N)=O [Peptide 3F17-6K, KKKKKKAAFAAFAAFAA-NH2] (H-KKKKKKAAFAAFAAFAA-NH2; N-terminus assumed)	0	2	0	0	16 (≈ 28.7 µg/mL)	2 (≈ 3.59 µg/mL)	16 (≈ 28.7 µg/mL)	>32	–	–	–	8 (≈ 14.4 µg/mL)	16 (≈ 28.7 µg/mL)	>32	–	–	–

Source: patent publication US20080234188A1, “Antimicrobial Peptides” (The Hospital for Sick Children, priority 2001, published 2008)
